# Values joined by “and” are separate entries in the source; they are usually repeats but may differ in a detail not shown here. Equal entries are not always repeated. “Also recorded” adds a separate entry of the source.
# Assays:
# Type in all cases: physicochemical
# [1] = Absorbance spectra of the dyes in DCM (UV-Visible/NIR spectrophotometer); conditions: dichloromethane; for absorption (DCM) λmax: in example paragraphs the longest-wavelength absorbance peak; for absorption (DCM) ε: at absorption λmax
# Source text: (§1) The absorbance spectra in FIG. 2 and FIG. 5 were obtained in DCM on a JASCO V-770 UV-Visible/[…] spectrophotometer with a 2000 nm/min or 4000 nm/min scan rate. Plotted are the baseline corrected and normalized data. The emission spectra in FIG. 2 were taken in DCM on either a Horiba Instruments PTI QuantaMaster Series fluorometer (6), a Fluoromax-3 spectrofluorometer (1, 3-5), or home-built InGaAs array detector (Princeton Instruments). For 6 the following parameters were used: ex. 610 nm, emission collected from 620-900 nm, slits 5 nm, step size 1 nm, integration time 1 s. Plotted is the DCM corrected, baseline corrected, normalized data. For 1, and 3-5, the following parameters were used: slits 5 nm, step size 1 nm, integration time, 0.25 s. Excitation values and emission collection were as follows: 1 (ex. 460, collection 470-800 nm), 5 (ex. 675 nm, collection 685-950 nm), 4 (ex. 840 nm, emission 850-1100 nm), 3 (ex. 730 nm, emission 950-1400). Plotted are the baseline corrected, normalized data. The emission spectra in FIG. 5 were taken in dichloromethane on a Horiba Instruments QuantaMaster Series fluorometer with excitation slits: 15 nm, emission slits: 30 nm, step size: 1 nm, integration time: 0.1 s and excitation wavelengths as indicated.
# [2] = Emission spectra of the dyes in DCM; conditions: dichloromethane; for Emission (CH2Cl2): Example 4 dyes, excitation 806-900 nm per dye; for emission (DCM) λmax: dyes 1, 3-6 and reference dyes
# Source text: as §1
# [3] = Photobleaching under continuous-wave irradiation at 532 nm; conditions: for relative rate, krel (photobleaching): 532 nm irradiation; for relative rate, krel (photobleaching) / photostability (in words) / raw rate, k (photobleaching) / ε at 532 nm: dichloromethane; for raw rate, k (photobleaching): continuous-wave irradiation 532 nm, 0.53 fluence
# Method: Photostabilities of the Flay series were measured under continuous-wave irradiation (532 nm, 0.53 fluence).
# [4] = Absolute fluorescence quantum yield using an integrating sphere; conditions: for QE, εΦF (quantum efficiency) / ΦF (fluorescence quantum yield): dichloromethane; for ΦF (fluorescence quantum yield): absolute value
# Method: Polymethine dyes disclosed herein are characterized with respect to their photophysics including absorption, emission, extinction coefficient, quantum yields, and fluorescence lifetime. All quantum yields values obtained are absolute quantum yields values measured using an integrating sphere. Photostabilities are evaluated by sample irradiation with high powered LEDs. Additionally, solvatochromism, solvent compatibility, and stability are assessed.
SMILES,absorption (DCM) λmax [1] [nm],Emission (CH2Cl2) [2] [nm],absorption (DCM) ε [1],emission (DCM) λmax [2] [nm],other results
ClC1=C(/C=C/c2cc(-c3ccccc3)[o+]c3ccc4ccccc4c23)CCC/C1=C\C=C1/C=C(c2ccccc2)Oc2ccc3ccccc3c21.F[B-](F)(F)F [1-((E)-2-((E)-2-chloro-3-((E)-2-(3-phenyl-1H-benzo[f]chromen-1-ylidene)ethylidene)cyclohex-1-en-1-yl)vinyl)-3-phenylbenzo[f]chromen-4-ium tetrafluoroborate],1014,1055,–,–,–
CCN(CC)c1ccc2c(c1)OC(c1ccccc1)=C/C2=C\C=C1/CCCC(/C=C/c2cc(-c3ccccc3)[o+]c3cc(N(CC)CC)ccc23)=C1Cl.F[B-](F)(F)F [4-((E)-2-((E)-2-chloro-3-(2-((E)-7-(diethylamino)-2-phenyl-4H-chromen-4-ylidene)ethylidene)cyclohex-1-en-1-yl)vinyl)-7-(diethylamino)-2-phenylchromenylium tetrafluoroborate],1034,1062,1.8±0.2×10^5 M^−1cm^−1,–,–
CN(C)c1ccc2c(c1)OC(c1ccccc1)=C/C2=C\C=C1/CCCC(/C=C/c2cc(-c3ccccc3)[o+]c3cc(N(C)C)ccc23)=C1Cl.F[B-](F)(F)F [4-((E)-2-((E)-2-chloro-3-(2-((E)-7-(dimethylamino)-2-phenyl-4H-chromen-4-ylidene)ethylidene)cyclohex-1-en-1-yl)vinyl)-7-(dimethylamino)-2-phenylchromenylium tetrafluoroborate],1026,1054,–,–,–
ClC1=C(/C=C/c2cc(-c3ccccc3)[o+]c3cc(N(c4ccccc4)c4ccccc4)ccc23)CCC/C1=C\C=C1/C=C(c2ccccc2)Oc2cc(N(c3ccccc3)c3ccccc3)ccc21.F[B-](F)(F)F [4-((E)-2-((E)-2-chloro-3-(2-((E)-7-(diphenylamino)-2-phenyl-4H-chromen-4-ylidene)ethylidene)cyclohex-1-en-1-yl)vinyl)-7-(diphenylamino)-2-phenylchromenylium tetrafluoroborate],1047,1079,–,–,–
ClC1=C(/C=C/c2cc(-c3ccccc3)[o+]c3c2ccc2ccccc23)CCC/C1=C\C=C1/C=C(c2ccccc2)Oc2c1ccc1ccccc21.F[B-](F)(F)F [4-((E)-2-((E)-2-chloro-3-((E)-2-(2-phenyl-4H-benzochromen-4-ylidene)ethylidene)cyclohex-1-en-1-yl)vinyl)-2-phenylbenzo chromen-1-ium tetrafluoroborate],998,1024,–,–,–
ClC1=C(/C=C/c2cc(-c3ccccc3)[o+]c3cc(N4CCC4)ccc23)CCC/C1=C\C=C1/C=C(c2ccccc2)Oc2cc(N3CCC3)ccc21.F[B-](F)(F)F [7-(azetidin-1-yl)-4-((E)-2-((E)-3-(2-((E)-7-(azetidin-1-yl)-2-phenyl-4H-chromen-4-ylidene)ethylidene)-2-chlorocyclohex-1-en-1-yl)vinyl)-2-phenylchromenylium tetrafluoroborate],1029,1059,2.07±0.01×10^5 M^−1cm^−1,–,–
"ClC1=C(/C=C/c2cc(-c3ccccc3)[o+]c3c4c5c(cc23)CCCN5CCC4)CCC/C1=C\C=C1/C=C(c2ccccc2)Oc2c1cc1c3c2CCCN3CCC1.F[B-](F)(F)F [9-((E)-2-((E)-2-chloro-3-((E)-2-(11-phenyl-2,3,6,7-tetrahydro-1H,5H,9H-pyrano[2,3-f]pyrido[3,2,1-ij]quinolin-9-ylidene)ethylidene)cyclohex-1-en-1-yl)vinyl)-11-phenyl-2,3,6,7-tetrahydro-1H,5H-pyrano[2,3-f]pyrido[3,2,1-ij]quinolin-12-ium tetrafluoroborate]",1061,1089,2.38±0.07×10^5 M^−1cm^−1,–,–
"C1=C(c2ccccc2)Oc2c(cc3c4c2CCCN4CCC3)/C1=C/C=C/C=C/c1cc(-c2ccccc2)[o+]c2c3c4c(cc12)CCCN4CCC3.F[B-](F)(F)F [11-phenyl-9-((1E,3E,5E)-5-(11-phenyl-2,3,6,7-tetrahydro-1H,5H,9H-pyrano[2,3-f]pyrido[3,2,1-ij]quinolin-9-ylidene)penta-1,3-dien-1-yl)-2,3,6,7-tetrahydro-1H,5H-pyrano[2,3-f]pyrido[3,2,1-ij]quinolin-12-ium tetrafluoroborate]",897,934,2.5±0.1×10^5 M^−1cm^−1,–,–
"Cc1cc(-c2ccccc2)[o+]c2cc(N(C)C)ccc12 [Dye 1, 7-N,N-dimethylamino-4-methyl-flavylium perchlorate]",510,–,17000 M⁻¹ cm⁻¹,587,–
CN(C)c1ccc2c(c1)OC(c1ccccc1)=C\C2=C/C=C/C=C/c1cc(-c2ccccc2)[o+]c2cc(N(C)C)ccc12.[O-][Cl+3]([O-])([O-])[O-] [Dye 4],862,–,–,908,"relative rate, krel (photobleaching) [3]: 4.0 ± 0.2; photostability (in words) ([3]; 532 nm laser, listed as Flav5): extremely high photostabilities; also recorded: excellent photostabilities; raw rate, k (photobleaching) [3]: 2.6 ± 0.2 s^−1 × 10^−3; ε at 532 nm [3]: 1.29 ± 0.08 M^−1cm^−1 × 10^4; QE, εΦF (quantum efficiency) [4]: 10000 M⁻¹ cm⁻¹; QE, εΦF (quantum efficiency) ([4]; listed as Flav5): 10^3 M^−1cm^−1; Stoke's shift [2]: 46 nm"
"CN(C)c1ccc2c(c1)OC(c1ccccc1)=C/C2=C\C=C\c1cc(-c2ccccc2)[o+]c2cc(N(C)C)ccc12.[O-][Cl+3]([O-])([O-])[O-] [Dye 5, 7-(dimethylamino)-4-((E)-3-((E)-7-(dimethylamino)-2-phenyl-4H-chromen-4-ylidene)prop-1-en-1-yl)-2-phenylchromenylium perchlorate]",746,–,–,766,"relative rate, krel (photobleaching) [3]: 1.00 ± .06; photostability relative to HITCI ([3]; 532 nm laser): 4 fold; photostability (in words) ([3]; 532 nm laser, listed as Flav3): extremely high photostabilities; also recorded: excellent photostabilities; raw rate, k (photobleaching) [3]: 1.00 ± 0.06 s^−1 × 10^−3; ε at 532 nm [3]: 2.0 ± 0.1 M^−1cm^−1 × 10^4; absorption (DCM) ε ([1]; listed as Flav3): ~220,000 M^−1cm^−1; absorption (DCM) λmax ([1]; listed as Flav3): ~745 nm; QE, εΦF (quantum efficiency) [4]: 6600 M⁻¹ cm⁻¹; ΦF (fluorescence quantum yield) [4]: 2.9±0.5% and 2.9%"
"CN(C)c1ccc2c(c1)OC(c1ccccc1)=C/C2=C\c1cc(-c2ccccc2)[o+]c2cc(N(C)C)ccc12.O=C([O-])C(F)(F)F [Dye 6, (E)-7-(dimethylamino)-4-((7-(dimethylamino)-2-phenyl-4H-chromen-4-ylidene)methyl)-2-phenylchromenylium 2,2,2-trifluoroacetate]",650,–,–,684,"relative rate, krel (photobleaching) [3]: 4 ± 1; photostability (in words) ([3]; 532 nm laser, listed as Flav1, 2,2,2-trifluoroacetate): extremely high photostabilities; also recorded: excellent photostabilities; raw rate, k (photobleaching) [3]: 0.43 ± 0.01 s^−1 × 10^−3; ε at 532 nm [3]: 0.23 ± 0.08 M^−1cm^−1 × 10^4; QE, εΦF (quantum efficiency) [4]: 100 M⁻¹ cm⁻¹; ΦF (fluorescence quantum yield) ([4]; 2,2,2-trifluoroacetate): 0.7±0.5% and 0.7%"
"CN1C(=CC=CC=CC=CC2=[N+](C)c3ccccc3C2(C)C)C(C)(C)c2ccccc21.[I-] [HITCI, 1,1′,3,3,3′,3′-hexamethylindotricarbocyanine iodide, reference compound]",–,–,–,–,ΦF relative to Flav3 [4]: ~10 fold
"ClC1=C(/C=C/c2cc(-c3ccccc3)[s+]c(-c3ccccc3)c2)CCC/C1=C/C=C1C=C(c2ccccc2)SC(c2ccccc2)=C1.F[B-](F)(F)F [IR-1061, reference compound]",–,–,–,1081,ΦF (fluorescence quantum yield) [4]: 0.32±0.04%

# Source: US11292778B2, “Heterocyclyl polymethine IR chromophores” (The Regents of the University of California, priority 2017, dated 2022)
